Reference: patent publication US20130096170A1 (priority 2011, published 2013)
Read-outs that look alike come from different tables or passages of the source.

Experiments:
[1] = system: pediatric subjects 2 to <17 years
[2] = in vivo
[3] = system: pediatric subjects 12 to <24 months; settings: in vivo
[4] = for CL, Predicted Typical Value / Volume of Distribution, Predicted Typical Value / Weight-Adjusted CL, Predicted Typical Value / Weight-Adjusted V, Predicted Typical Value: model-predicted
[5] = clinical; settings: human, in vivo
[6] = clinical; settings: human, plasma, intravenous
[7] = cited from earlier work
[8] = final population PK model, Examples 5, 3, 1 and 7

## Cc1cccc([C@H](C)c2cnc[nH]2)c1C [dexmedetomidine]
[1]; human, in vivo
  treatment-related TEAE: hypotension: 1 subjects
[1]; safety population
  deaths: No deaths
[2]; human
  power-model slope (95% confidence interval) for AUC0-inf: 1.263 (0.820, 1.706)
  power-model slope (95% confidence interval) for Cmax: 0.898 (0.652, 1.143)
[2]
  pharmacokinetic linearity / dose proportionality: linearity and dose proportionality
[3]; human
  subjects with treatment-emergent adverse events: 20.0%
[3]
  safety and tolerability: safe and well tolerated
[4]; final population PK model
  Magnitude of Interindividual Variability in Vc, final estimate: 53.76 % CV
[4]; [8]
  Exponent for power function effect of age on Q (population mean): −0.342
  Exponent for power function effect of age on Vp (population mean): −0.280
  Inter-compartmental CL (Q) (population mean): 63.5 L/h
  Vc, volume of the central compartment (population mean): 8.49 L
  Vp, volume of the peripheral compartment (population mean): 14.7 L
[4]; final population PK model, cell spans CL rows
  Magnitude of Interindividual Variability in CL, final estimate: 37.01 % CV
[4]; final population PK model, cell spans Q rows
  Magnitude of Interindividual Variability in Q, final estimate: 161.25 % CV
[4]; final population PK model, cell spans Vp rows
  Magnitude of Interindividual Variability in Vp, final estimate: 51.19 % CV
[4]; 1 month-<6 months
  CL, Predicted Typical Value: 7.51 L/h
  Volume of Distribution, Predicted Typical Value: 18.75 L
  Weight-Adjusted CL, Predicted Typical Value: 20.9 mL/min/kg
  Weight-Adjusted V, Predicted Typical Value: 3.133 L/kg
[4]; 2 y-<6 y
  CL, Predicted Typical Value: 14.01 L/h
  Volume of Distribution, Predicted Typical Value: 28.09 L
  Weight-Adjusted CL, Predicted Typical Value: 16.98 mL/min/kg
  Weight-Adjusted V, Predicted Typical Value: 2.043 L/kg
[4]; 6 months-<12 months
  CL, Predicted Typical Value: 8.69 L/h
  Volume of Distribution, Predicted Typical Value: 19.95 L
  Weight-Adjusted CL, Predicted Typical Value: 19.92 mL/min/kg
  Weight-Adjusted V, Predicted Typical Value: 2.742 L/kg
[4]; 6 y-<17 y
  CL, Predicted Typical Value: 25.27 L/h
  Volume of Distribution, Predicted Typical Value: 52.97 L
  Weight-Adjusted CL, Predicted Typical Value: 14 mL/min/kg
  Weight-Adjusted V, Predicted Typical Value: 1.754 L/kg
[4]; 12 months-<24 months
  CL, Predicted Typical Value: 11.12 L/h
  Volume of Distribution, Predicted Typical Value: 23.85 L
  Weight-Adjusted CL, Predicted Typical Value: 18.35 mL/min/kg
  Weight-Adjusted V, Predicted Typical Value: 2.361 L/kg
[4]; 28 weeks GA-<1 month
  CL, Predicted Typical Value: 2.69 L/h
  Volume of Distribution, Predicted Typical Value: 16.21 L
  Weight-Adjusted CL, Predicted Typical Value: 15.6 mL/min/kg
  Weight-Adjusted V, Predicted Typical Value: 5.618 L/kg
[5]; Cl Mean
  clearance: 171 mL/min
[5]; Cl Median
  clearance: 162 mL/min
[5]; Vd Mean
  Vd: 30.5 L
[5]; Vd Median
  Vd: 29.1 L
[5]; apparent (mean) t1/2
  half-life: 2.33 h
[5]; t1/2, Mean
  half-life: 2.33 h
[5]; t1/2 Median
  half-life: 1.87 h
[6]; CL, Geo. Mean of individual Bayesian estimates, 1 month-<6 months (n = 14)
  clearance: 116 mL/min
[6]; CL, Geo. Mean of individual Bayesian estimates, 2 y-<6 y (n = 26)
  clearance: 265 mL/min
[6]; CL, Geo. Mean of individual Bayesian estimates, 6 months-<12 months (n = 16)
  clearance: 136 mL/min
[6]; CL, Geo. Mean of individual Bayesian estimates, 6 y-<17 y (n = 29)
  clearance: 408 mL/min
[6]; CL, Geo. Mean of individual Bayesian estimates, 12 months-<24 months (n = 13)
  clearance: 179 mL/min
[6]; CL, Geo. Mean of individual Bayesian estimates, 28 weeks GA-<1 month (n = 28)
  clearance: 38 mL/min
[6]; CL, elimination clearance (population mean), final population PK model, Examples 5, 3, 1 and 7
  clearance: 178 mL/min
[6]; Volume of Distribution, Geo. Mean of individual Bayesian estimates, 1 month-<6 months (n = 14)
  Vd: 17.3 L
[6]; Volume of Distribution, Geo. Mean of individual Bayesian estimates, 2 y-<6 y (n = 26)
  Vd: 33.7 L
[6]; Volume of Distribution, Geo. Mean of individual Bayesian estimates, 6 months-<12 months (n = 16)
  Vd: 21.2 L
[6]; Volume of Distribution, Geo. Mean of individual Bayesian estimates, 6 y-<17 y (n = 29)
  Vd: 51.6 L
[6]; Volume of Distribution, Geo. Mean of individual Bayesian estimates, 12 months-<24 months (n = 13)
  Vd: 23.9 L
[6]; Volume of Distribution, Geo. Mean of individual Bayesian estimates, 28 weeks GA-<1 month (n = 28)
  Vd: 14.1 L
[6]; Weight-Adjusted CL, Geometric Mean (individual Bayesian estimates), Including Additional 11 Subjects, 1 month-<6 months (n = 14)
  clearance: 20.2 mL/min/kg
[6]; Weight-Adjusted CL, Geometric Mean (individual Bayesian estimates), Including Additional 11 Subjects, 2 y-<6 y (n = 26)
  clearance: 18.5 mL/min/kg
[6]; Weight-Adjusted CL, Geometric Mean (individual Bayesian estimates), Including Additional 11 Subjects, 6 months-<12 months (n = 16)
  clearance: 18.5 mL/min/kg
[6]; Weight-Adjusted CL, Geometric Mean (individual Bayesian estimates), Including Additional 11 Subjects, 6 y-<17 y (n = 29)
  clearance: 13.3 mL/min/kg
[6]; Weight-Adjusted CL, Geometric Mean (individual Bayesian estimates), Including Additional 11 Subjects, 12 months-<24 months (n = 13)
  clearance: 17.7 mL/min/kg
[6]; Weight-Adjusted CL, Geometric Mean (individual Bayesian estimates), Including Additional 11 Subjects, 28 weeks GA-<1 month (n = 28)
  clearance: 15.5 mL/min/kg
[6]; Weight-Adjusted Vd, Geometric Mean (individual Bayesian estimates), Including Additional 11 Subjects, 1 month-<6 months (n = 14)
  Vd: 3.02 L/kg
[6]; Weight-Adjusted Vd, Geometric Mean (individual Bayesian estimates), Including Additional 11 Subjects, 2 y-<6 y (n = 26)
  Vd: 2.35 L/kg
[6]; Weight-Adjusted Vd, Geometric Mean (individual Bayesian estimates), Including Additional 11 Subjects, 6 months-<12 months (n = 16)
  Vd: 2.89 L/kg
[6]; Weight-Adjusted Vd, Geometric Mean (individual Bayesian estimates), Including Additional 11 Subjects, 6 y-<17 y (n = 29)
  Vd: 1.68 L/kg
[6]; Weight-Adjusted Vd, Geometric Mean (individual Bayesian estimates), Including Additional 11 Subjects, 12 months-<24 months (n = 13)
  Vd: 2.35 L/kg
[6]; Weight-Adjusted Vd, Geometric Mean (individual Bayesian estimates), Including Additional 11 Subjects, 28 weeks GA-<1 month (n = 28)
  Vd: 5.74 L/kg
[7]
  pKa: 7
  solubility in water: freely soluble in water
[7]; study drug as supplied
  pH of the isotonic solution: 4.5
